The source made the active and inactive calls. The rule behind the calls is not given here.
Key:
[1] = system: NU-DUL-1; assay: Antiproliferative activity against human NU-DUL-1 cells assessed as cell growth inhibition measured after 72 hrs by resazurin dye based microplate reader analysis; assay type: functional
[2] = molecular target: Cyclin-dependent kinase 13/Cyclin-K (Homo sapiens, UniProt Q14004); assay: Inhibition of GST-tagged human CDK13/Cyclin K expressed in Sf9 cells using RBER-IRStide peptide as substrate in presence of ATP and [gamma33-P] ATP by radioisotope filter binding assay
[3] = Antiproliferative activity against human OCI-Ly2 cells assessed as cell growth inhibition measured after 72 hrs by resazurin dye based microplate reader analysis; assay type: functional
[4] = system: MINO; assay: Downregulation of RB levels in human MINO cells incubated for 24 hrs by immunoblotting analysis; assay type: functional, cell-based; details: dose 2.5-40 nM, DDE = dose-dependent effect
[5] = molecular target: Cyclin-dependent kinase 2/G1/S-specific cyclin-D1 (Homo sapiens, UniProt P24385+P24941); assay type: cell-based, Sf9
[6] = system: MINO; assay: Downregulation of CDK4 levels in human MINO cells incubated for 24 hrs by immunoblotting analysis; assay type: functional, cell-based; details: dose 2.5-40 nM, DDE = dose-dependent effect
[7] = molecular target: CDK9/cyclin T1 (Homo sapiens, UniProt P50750); assay: Inhibition of GST-tagged human CDK9/Cyclin T1 expressed in Sf9 cells using (YSPTSPS)2KK peptide as substrate in presence of ATP and [gamma33-P] ATP by radioisotope filter binding assay; assay type: cell-based
[8] = Inhibition of GST-tagged human CDK5/p25 expressed in Sf9 cells using histone H1 as substrate in presence of ATP and [gamma33-P] ATP by radioisotope filter binding assay
[9] = molecular target: Cyclin-dependent kinase 2/cyclin E1 (Homo sapiens, UniProt P24941); assay: Inhibition of His-tagged CDK2/cyclin E1 (unknown origin) expressed in Sf9 cells using histone H1 as substrate in presence of ATP and [gamma33-P]ATP by radioisotope filter binding assay; assay type: cell-based
[10] = Antiproliferative activity against human UPF1H cells assessed as cell growth inhibition measured after 72 hrs by resazurin dye based microplate reader analysis; assay type: functional
[11] = system: MINO; assay: Induction of apoptosis in human MINO cells assessed as reduction in XIAP levels at 2.5 to 40 nM measured after 24 hrs by immunoblotting analysis; assay type: functional, cell-based; details: dose 2.5-40 nM
[12] = system: SUD4; assay: Antiproliferative activity against human SU-DHL-4 cells assessed as cell growth inhibition measured after 72 hrs by resazurin dye based microplate reader analysis; assay type: functional
[13] = system: MINO; assay: Inhibition of CDK in human MINO cells assessed as dephosphorylation of retinoblastoma protein incubated for 2 hrs by immunoblotting analysis; assay type: cell-based; details: dose 0.005-5 µM, DDE = dose-dependent effect
[14] = system: MINO; assay: Downregulation of cyclin D1 levels in human MINO cells incubated for 24 hrs by immunoblotting analysis; assay type: functional, cell-based; details: dose 2.5-40 nM, DDE = dose-dependent effect
[15] = Antiproliferative activity against human Ri-1 cells assessed as cell growth inhibition measured after 72 hrs by resazurin dye based microplate reader analysis; assay type: functional
[16] = molecular target: CDK12/Cyclin K (Homo sapiens, UniProt Q9NYV4); assay: Inhibition of GST-tagged human CDK12/Cyclin K expressed in Sf9 cells using RBER-IRStide peptide as substrate in presence of ATP and [gamma33-P] ATP by radioisotope filter binding assay
[17] = Antiproliferative activity against human MINO cells assessed as cell growth inhibition measured after 72 hrs by resazurin dye based microplate reader analysis; assay type: functional
[18] = system: VFN-D2; assay: In vivo induction of degradation of cyclin K in patient-derived VFN-D2 cells xenografted in NSG mouse assessed as reduction in cyclin K levels at 0.1 to 10 mg/kg, ip measured after 24 hrs by immunoblotting analysis; assay type: functional, organism-based; details: dose 0.1-10 mg/kg
[19] = system: MINO; assay: Downregulation of cyclin K levels in human MINO cells at 50 nM incubated for 2 hrs by immunoblotting analysis; assay type: functional, cell-based
[20] = system: MINO; assay: Inhibition of CDK in human MINO cells assessed as dephosphorylation of C-terminus of RNA polymerase II at serine 2 incubated for 2 hrs by immunoblotting analysis; assay type: cell-based; details: dose 0.005-5 µM, DDE = dose-dependent effect
[21] = system: U2932; assay: Antiproliferative activity against human U2932 cells assessed as cell growth inhibition measured after 72 hrs by resazurin dye based microplate reader analysis; assay type: functional
[22] = system: OCI-LY19; assay: Antiproliferative activity against human OCILY19 cells assessed as cell growth inhibition measured after 72 hrs by resazurin dye based microplate reader analysis; assay type: functional
[23] = system: MINO; assay: Downregulation of cyclin K levels in human MINO cells at 5 nM incubated for 2 hrs by immunoblotting analysis; assay type: functional, cell-based
[24] = system: MINO; assay: Downregulation of mcl-1 levels in human MINO cells incubated for 2 hrs by immunoblotting analysis; assay type: functional, cell-based; details: dose 2.5-40 nM, DDE = dose-dependent effect
[25] = system: MINO; assay: Induction of degradation of cyclin K in human MINO cells coexpressing DDB1 with siRNA assessed as stabilization of cyclin K levels at 100 nM measured after 1 hrs by immunoblotting analysis; assay type: functional, cell-based
[26] = system: MINO; assay: Inhibition of CDK in human MINO cells assessed as dephosphorylation of C-terminus of RNA polymerase II at serine 5 incubated for 2 hrs by immunoblotting analysis; assay type: cell-based; details: dose 0.005-5 µM, DDE = dose-dependent effect
[27] = system: DB; assay: Antiproliferative activity against human DB cells assessed as cell growth inhibition measured after 72 hrs by resazurin dye based microplate reader analysis; assay type: functional
[28] = system: MINO; assay: Induction of apoptosis in human MINO cells assessed as reduction in mcl-1 levels at 2.5 to 40 nM measured after 24 hrs by immunoblotting analysis; assay type: functional, cell-based; details: dose 2.5-40 nM
[29] = system: VFN-D2; assay: In vivo induction of degradation of cyclin K in patient-derived VFN-D2 cells xenografted in NSG mouse assessed as reduction in CDK12 levels at 0.1 to 10 mg/kg, ip measured after 24 hrs by immunoblotting analysis; assay type: functional, organism-based; details: dose 0.1-10 mg/kg

Chain of Cyclin-dependent kinase 13/Cyclin-K (Q14004 whole entry): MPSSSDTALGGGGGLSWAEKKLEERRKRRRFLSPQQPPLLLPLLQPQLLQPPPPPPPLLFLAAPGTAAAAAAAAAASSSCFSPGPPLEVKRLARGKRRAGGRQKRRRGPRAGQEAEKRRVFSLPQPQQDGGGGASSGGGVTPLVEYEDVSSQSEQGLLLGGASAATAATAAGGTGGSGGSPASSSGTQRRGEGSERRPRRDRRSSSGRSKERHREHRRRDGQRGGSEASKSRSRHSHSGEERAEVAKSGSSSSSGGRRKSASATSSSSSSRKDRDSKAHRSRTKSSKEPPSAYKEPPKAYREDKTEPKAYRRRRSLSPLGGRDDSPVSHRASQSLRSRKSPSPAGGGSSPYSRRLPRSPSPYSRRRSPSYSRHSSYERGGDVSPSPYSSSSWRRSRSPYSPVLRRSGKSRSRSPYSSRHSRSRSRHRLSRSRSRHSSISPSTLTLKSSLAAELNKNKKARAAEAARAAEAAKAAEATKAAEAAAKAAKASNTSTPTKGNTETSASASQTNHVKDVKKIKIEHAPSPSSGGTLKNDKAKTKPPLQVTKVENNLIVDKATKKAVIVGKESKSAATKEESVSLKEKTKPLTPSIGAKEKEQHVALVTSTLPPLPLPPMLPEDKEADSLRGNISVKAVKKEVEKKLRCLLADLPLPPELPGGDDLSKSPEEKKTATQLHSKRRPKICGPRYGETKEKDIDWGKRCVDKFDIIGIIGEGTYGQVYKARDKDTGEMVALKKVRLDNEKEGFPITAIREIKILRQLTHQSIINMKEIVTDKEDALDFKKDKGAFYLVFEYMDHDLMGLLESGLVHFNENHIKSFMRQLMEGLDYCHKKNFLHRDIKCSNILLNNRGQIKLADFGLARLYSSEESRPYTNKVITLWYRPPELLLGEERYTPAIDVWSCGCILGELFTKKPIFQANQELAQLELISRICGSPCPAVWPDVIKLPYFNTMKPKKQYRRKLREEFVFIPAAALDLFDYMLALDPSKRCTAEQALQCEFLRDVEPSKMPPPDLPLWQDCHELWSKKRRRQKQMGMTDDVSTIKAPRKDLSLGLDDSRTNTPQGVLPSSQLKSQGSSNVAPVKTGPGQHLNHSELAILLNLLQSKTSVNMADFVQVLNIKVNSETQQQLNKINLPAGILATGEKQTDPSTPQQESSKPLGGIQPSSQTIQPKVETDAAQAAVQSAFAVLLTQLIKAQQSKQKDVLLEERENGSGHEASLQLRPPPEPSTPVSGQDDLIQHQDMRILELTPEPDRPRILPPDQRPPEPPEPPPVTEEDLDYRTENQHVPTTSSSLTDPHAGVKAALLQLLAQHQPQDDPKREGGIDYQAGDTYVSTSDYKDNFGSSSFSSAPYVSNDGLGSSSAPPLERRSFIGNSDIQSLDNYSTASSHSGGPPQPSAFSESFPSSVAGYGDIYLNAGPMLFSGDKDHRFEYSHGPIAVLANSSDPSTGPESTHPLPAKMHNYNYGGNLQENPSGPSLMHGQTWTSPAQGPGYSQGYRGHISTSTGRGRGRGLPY
Chain of Cyclin-dependent kinase 13/Cyclin-K (O75909 whole entry, further chain): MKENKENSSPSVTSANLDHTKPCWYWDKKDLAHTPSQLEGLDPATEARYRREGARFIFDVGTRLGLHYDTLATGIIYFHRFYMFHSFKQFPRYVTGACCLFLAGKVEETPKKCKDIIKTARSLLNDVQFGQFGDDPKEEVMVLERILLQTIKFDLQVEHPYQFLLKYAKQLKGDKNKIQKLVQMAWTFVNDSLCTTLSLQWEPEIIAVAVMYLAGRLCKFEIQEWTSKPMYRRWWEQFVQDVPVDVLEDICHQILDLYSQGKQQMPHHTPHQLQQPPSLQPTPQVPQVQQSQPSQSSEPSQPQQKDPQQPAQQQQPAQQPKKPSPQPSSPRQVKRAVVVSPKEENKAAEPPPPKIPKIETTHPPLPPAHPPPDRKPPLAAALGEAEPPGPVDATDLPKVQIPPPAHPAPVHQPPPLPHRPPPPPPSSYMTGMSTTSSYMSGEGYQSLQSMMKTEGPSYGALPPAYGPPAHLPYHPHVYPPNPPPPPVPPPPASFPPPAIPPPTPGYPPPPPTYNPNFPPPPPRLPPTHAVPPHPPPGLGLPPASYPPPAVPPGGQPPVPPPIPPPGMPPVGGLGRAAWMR
Chain of CDK12/Cyclin K (O75909 whole entry): as the sequence (O75909 whole entry, further chain) above
Chain of CDK12/Cyclin K (Q9NYV4 whole entry): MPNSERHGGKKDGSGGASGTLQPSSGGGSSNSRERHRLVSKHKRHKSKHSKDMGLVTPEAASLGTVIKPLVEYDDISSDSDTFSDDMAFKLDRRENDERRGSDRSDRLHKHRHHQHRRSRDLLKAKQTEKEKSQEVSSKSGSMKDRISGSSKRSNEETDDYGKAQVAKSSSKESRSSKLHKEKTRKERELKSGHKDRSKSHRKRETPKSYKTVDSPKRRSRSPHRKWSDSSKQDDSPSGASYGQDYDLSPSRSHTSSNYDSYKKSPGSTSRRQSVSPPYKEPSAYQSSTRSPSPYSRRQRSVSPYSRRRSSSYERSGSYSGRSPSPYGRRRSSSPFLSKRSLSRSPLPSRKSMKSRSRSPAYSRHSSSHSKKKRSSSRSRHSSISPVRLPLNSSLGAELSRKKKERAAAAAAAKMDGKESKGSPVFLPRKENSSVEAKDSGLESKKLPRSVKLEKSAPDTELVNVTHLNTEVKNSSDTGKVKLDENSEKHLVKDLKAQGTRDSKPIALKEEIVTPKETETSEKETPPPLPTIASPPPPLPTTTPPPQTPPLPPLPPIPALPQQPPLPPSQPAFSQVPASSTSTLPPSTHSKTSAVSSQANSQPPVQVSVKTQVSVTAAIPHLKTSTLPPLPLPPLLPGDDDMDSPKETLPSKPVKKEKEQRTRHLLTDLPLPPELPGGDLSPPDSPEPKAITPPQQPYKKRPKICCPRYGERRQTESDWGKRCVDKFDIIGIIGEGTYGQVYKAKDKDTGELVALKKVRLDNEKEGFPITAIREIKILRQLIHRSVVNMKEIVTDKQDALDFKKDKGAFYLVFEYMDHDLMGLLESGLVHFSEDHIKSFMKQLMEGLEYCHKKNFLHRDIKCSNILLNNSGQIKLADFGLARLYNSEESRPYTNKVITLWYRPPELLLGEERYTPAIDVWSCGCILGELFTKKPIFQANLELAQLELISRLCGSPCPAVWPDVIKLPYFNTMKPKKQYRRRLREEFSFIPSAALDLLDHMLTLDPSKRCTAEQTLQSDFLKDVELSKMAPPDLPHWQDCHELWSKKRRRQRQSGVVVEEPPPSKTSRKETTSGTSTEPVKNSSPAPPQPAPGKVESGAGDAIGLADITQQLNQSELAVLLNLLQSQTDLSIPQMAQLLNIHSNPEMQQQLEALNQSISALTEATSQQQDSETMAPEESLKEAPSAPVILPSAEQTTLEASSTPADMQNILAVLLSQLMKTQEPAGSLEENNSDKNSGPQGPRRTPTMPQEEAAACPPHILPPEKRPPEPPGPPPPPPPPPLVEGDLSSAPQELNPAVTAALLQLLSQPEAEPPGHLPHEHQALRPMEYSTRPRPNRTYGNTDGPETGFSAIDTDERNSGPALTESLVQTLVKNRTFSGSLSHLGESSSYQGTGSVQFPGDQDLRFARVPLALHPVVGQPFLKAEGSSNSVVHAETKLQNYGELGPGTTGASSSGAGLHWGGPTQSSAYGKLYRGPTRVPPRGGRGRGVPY
Chain of CDK9/cyclin T1 (O60563 whole entry): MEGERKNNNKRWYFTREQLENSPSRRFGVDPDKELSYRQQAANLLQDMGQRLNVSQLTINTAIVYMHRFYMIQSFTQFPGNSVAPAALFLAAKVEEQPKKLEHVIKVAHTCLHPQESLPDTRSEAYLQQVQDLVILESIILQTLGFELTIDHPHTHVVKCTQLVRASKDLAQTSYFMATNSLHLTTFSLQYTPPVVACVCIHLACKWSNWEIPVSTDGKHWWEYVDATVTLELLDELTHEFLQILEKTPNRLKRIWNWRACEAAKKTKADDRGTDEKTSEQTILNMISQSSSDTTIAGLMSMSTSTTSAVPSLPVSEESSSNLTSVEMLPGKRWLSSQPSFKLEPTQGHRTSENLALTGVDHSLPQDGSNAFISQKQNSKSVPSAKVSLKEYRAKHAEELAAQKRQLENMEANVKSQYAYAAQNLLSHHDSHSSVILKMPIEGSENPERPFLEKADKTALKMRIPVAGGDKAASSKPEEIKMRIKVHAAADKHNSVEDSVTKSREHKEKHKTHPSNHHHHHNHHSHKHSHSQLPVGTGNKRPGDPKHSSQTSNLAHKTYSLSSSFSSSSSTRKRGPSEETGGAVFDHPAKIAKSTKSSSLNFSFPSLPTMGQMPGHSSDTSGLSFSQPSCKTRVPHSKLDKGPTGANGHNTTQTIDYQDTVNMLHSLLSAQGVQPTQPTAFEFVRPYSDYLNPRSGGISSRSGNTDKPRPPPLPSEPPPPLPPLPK
Chain of CDK9/cyclin T1 (P50750 whole entry): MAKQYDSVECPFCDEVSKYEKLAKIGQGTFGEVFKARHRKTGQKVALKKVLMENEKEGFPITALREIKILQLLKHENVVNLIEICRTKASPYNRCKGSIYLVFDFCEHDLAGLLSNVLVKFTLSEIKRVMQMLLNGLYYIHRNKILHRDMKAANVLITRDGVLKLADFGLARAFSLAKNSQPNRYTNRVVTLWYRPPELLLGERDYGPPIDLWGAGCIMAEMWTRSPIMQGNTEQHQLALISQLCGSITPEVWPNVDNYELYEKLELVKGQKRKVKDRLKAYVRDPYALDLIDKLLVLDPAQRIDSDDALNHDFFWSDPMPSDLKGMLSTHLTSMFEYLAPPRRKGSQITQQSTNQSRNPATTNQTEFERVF

Question: With `NCCSc1nc(NCc2ccc(-n3cccn3)cc2)c2[nH]nc(C3CCC3)c2n1` as the compound, how does the GI50 [1] read?
Answer: 0.015 µM

Question: And the IC50 [2]?
Answer: 0.022 µM

Question: And the GI50 [3]?
Answer: 0.011 µM

Question: And the Activity [4]?
Answer: Dde

Question: What about the IC50 [5] of the same compound?
Answer: > 1 µM

Question: What about the Activity [6] of the same compound?
Answer: Dde

Question: What about the IC50 [7] of the same compound?
Answer: 0.02 µM

Question: And the IC50 [8]?
Answer: 0.039 µM

Question: And the IC50 [9]?
Answer: 0.004 µM

Question: What about the GI50 [10] of the same compound?
Answer: 0.01 µM

Question: And the Activity [11]?
Answer: Active

Question: And the GI50 [12]?
Answer: 0.028 µM

Question: What about the Activity [13] of the same compound?
Answer: Dde

Question: And the Activity [14]?
Answer: Dde

Question: And the GI50 [15]?
Answer: 0.054 µM

Question: What about the IC50 [16] of the same compound?
Answer: 0.064 µM

Question: And the GI50 [17]?
Answer: 0.01 µM

Question: What about the Activity [18] of the same compound?
Answer: Active

Question: And the Activity [19]?
Answer: Active

Question: What about the Activity [20] of the same compound?
Answer: Dde

Question: And the GI50 [21]?
Answer: 0.055 µM

Question: What about the GI50 [22] of the same compound?
Answer: 0.465 µM

Question: What about the Activity [23] of the same compound?
Answer: Active

Question: What about the Activity [24] of the same compound?
Answer: Dde

Question: And the Activity [25]?
Answer: Active

Question: What about the Activity [26] of the same compound?
Answer: Dde

Question: What about the GI50 [27] of the same compound?
Answer: 0.02 µM

Question: And the Activity [28]?
Answer: Active

Question: What about the Activity [29] of the same compound?
Answer: Active
